Assay results taken from BindingDB's records for patent US20230364079 (Chengdu Hyperway Pharmaceuticals, 2023).
pIC50: −log10 of the molar value.

target: Tyrosine-protein kinase BTK (Homo sapiens, UniProt Q06187); test: BTK Kinase Activity Inhibition Test in Vitro
Sequence (Q06187 whole entry): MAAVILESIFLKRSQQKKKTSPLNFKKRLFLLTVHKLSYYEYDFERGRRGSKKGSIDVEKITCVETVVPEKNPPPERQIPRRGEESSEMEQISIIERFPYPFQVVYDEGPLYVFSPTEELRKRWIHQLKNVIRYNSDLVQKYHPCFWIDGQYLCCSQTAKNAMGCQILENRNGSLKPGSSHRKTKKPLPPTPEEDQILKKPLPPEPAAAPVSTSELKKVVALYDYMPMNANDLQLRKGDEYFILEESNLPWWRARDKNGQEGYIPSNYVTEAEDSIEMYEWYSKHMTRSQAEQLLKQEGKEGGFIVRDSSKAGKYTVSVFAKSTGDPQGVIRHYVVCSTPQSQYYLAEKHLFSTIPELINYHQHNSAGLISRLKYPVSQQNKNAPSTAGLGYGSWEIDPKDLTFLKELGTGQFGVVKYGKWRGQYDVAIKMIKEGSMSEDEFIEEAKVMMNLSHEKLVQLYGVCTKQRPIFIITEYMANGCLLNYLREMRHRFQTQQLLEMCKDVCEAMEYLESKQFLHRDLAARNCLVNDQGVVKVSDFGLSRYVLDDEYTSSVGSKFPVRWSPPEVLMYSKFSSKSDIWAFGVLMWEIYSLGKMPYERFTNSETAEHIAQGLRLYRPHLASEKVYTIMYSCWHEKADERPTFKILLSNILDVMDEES

Row | Structure (SMILES) | pIC50
1 | COc1cccc(Oc2ccc(-c3nc(C4CCC(CO)OC4)n4c(Cl)cnc(N)c34)cc2)c1F (stereo unspecified) [US20230364079, Example 12] | > 8.30
2 | Nc1nccn2c(C3CCC(CO)OC3)nc(-c3ccc(Oc4cccc(OC(F)(F)F)c4F)cc3F)c12 (stereo unspecified) [US20230364079, Example 13] | > 8.30
3 | Nc1ncc(Cl)n2c(C3CCC(CO)OC3)nc(-c3ccc(Oc4cccc(OC(F)(F)F)c4F)cc3)c12 (stereo unspecified) [US20230364079, Example 14] | > 8.30
4 | COc1cccc(Oc2ccc(-c3nc(C4CCC(CO)OC4)n4c(Cl)cnc(N)c34)c(F)c2)c1F (stereo unspecified) [US20230364079, Example 11] | > 8.30
5 | Nc1nccn2c(C3CCC(CO)OC3)nc(-c3ccc(Oc4cccc(OC(F)(F)F)c4F)cc3)c12 (stereo unspecified) [US20230364079, Example 6] | > 8.30
6 | Nc1nccn2c(C3CCC(CO)OC3)nc(-c3ccc(Oc4cccc(Cl)c4F)cc3)c12 (stereo unspecified) [US20230364079, Example 9] | > 8.30
